In experiment [1] the target is T1, HLA-A0301 (Homo sapiens, UniProt P04439).
T1 construct: endogenous in cells
Put plainly: Competition-based cellular peptide binding assay, HLA-A0301. The conditions noted are these: Table 2; mild-acid-treated B-LCLs, 150 nM fluorescent reference peptide […], overnight 4°C, flow cytometry; mean of two independent experiments. The protocol:
(§1) To test binding affinity of eluted and predicted peptides to HLA-I, competition-based cellular peptide binding assays were performed as described earlier. In short, B-LCLs were treated with a mild acid (1∶1 mixture of 0.263M C6H8O7*H2O and 0.126M Na2HPO4*2H2O) for 1 min to remove the naturally HLA-I bound peptides. Cells were buffered with cold IMDM containing 2% FCS immediately thereafter and resuspended at a concentration of 4×10^5 cells/ml in 2% FCS and 1.5 µg/ml human β2m (Sigma-Aldrich). Then, 4×10^4 cells/well were incubated with 150 nM of fluorescently labeled reference peptide and a serial dilution of one of the eluted or predicted peptides. The following HLA-I allele-restricted reference peptides were used: […] (for HLA-A0201), […] (for HLA-A0301), […] (for HLA-B0702) and […] (for HLA-B4002), each containing a fluorescent label bound to the cysteine residue. After overnight incubation at 4°C, cells were washed twice in PBS supplemented with 1% BSA and fixed in 0.5% paraformaldehyde. Cells were analyzed with CellQuestPro or FlowJo software (Tree Star, Ashland, OR, USA). IC50 values were defined with GraphPad Prism 4.02 (GraphPad Software Inc., La Jolla, USA) using the following formula: Y = Bmax*X/(IC50+X), in which Bmax is the maximal binding capacity of the positive control peptide, X the concentration of peptide tested and IC50 the concentration of peptide needed to reach half-maximal binding.
A general note: Flow cytometry measures light scatter and fluorescence of single cells or particles in a stream.

In experiment [2] the target is T2, HLA-B0702 (Homo sapiens, UniProt P01889).
T2 construct: endogenous in cells
Put plainly: Competition-based cellular peptide binding assay, HLA-B0702. The conditions noted are these: for IC50: mild-acid-treated B-LCLs, 150 nM fluorescent reference peptide […], overnight 4°C, flow cytometry, mean of two independent experiments. The protocol:
as §1

For experiment [3], the target named is T3, HLA-A0201 (Homo sapiens, UniProt P04439, D140Y/D185E/D98H/E176V/E277Q/G131W/G231S/I119V/I121R/I166T/I218V/L300P/L318F/N151K/N90K/P208A/P217A/Q86G/Q94H/R138H/R169H/T345S).
T3 construct: endogenous in cells
The experiment in a line: Competition-based cellular peptide binding assay, HLA-A0201. The conditions noted are these: for IC50: mild-acid-treated B-LCLs, 150 nM fluorescent reference peptide […], overnight 4°C, flow cytometry, mean of two independent experiments, read-out: HLA-A201 IC50. On the procedure: To test binding affinity of eluted and predicted peptides to HLA-I, competition-based cellular peptide binding assays were performed as described earlier. […] Cells were buffered with cold IMDM containing 2% FCS immediately thereafter and resuspended at a concentration of 4×10^5 cells/ml in 2% FCS and 1.5 µg/ml human β2m (Sigma-Aldrich). […] The following HLA-I allele-restricted reference peptides were used: […] (for HLA-B0702) and […] (for HLA-B4002), each containing a fluorescent label bound to the cysteine residue. After overnight incubation at 4°C, cells were washed twice in PBS supplemented with 1% BSA and fixed in 0.5% paraformaldehyde. Cells were analyzed with CellQuestPro or FlowJo software (Tree Star, Ashland, OR, USA).

Experiment [4] has as its target T4, HLA-B4002 (Homo sapiens, UniProt P01889, A65T/A93T/A95T/D138N/D201E/D98Y/E176V/E204Q/E69K/K202T/N87E/Q56L/Q94N/R180L/S48T/Y33H/Y91S). Put plainly: Competition-based cellular peptide binding assay, HLA-B4002. As to conditions: Table 2; mild-acid-treated B-LCLs, 150 nM fluorescent reference peptide […], overnight 4°C, flow cytometry; mean of two independent experiments. The protocol:
as §1

In experiment [5] the target is T2, HLA-B0702. The conditions noted are these: Figure 3 legend; positive control peptide; cited from earlier work. The text has this:
(§2) (A0201 peptide), […] (A0301 peptide), SPSVDK ...

Experiment [6] has as its target T4, HLA-B4002. The conditions noted are these: Figure 3 legend; positive control peptide; cited from earlier work.
Description: as §2

[7] abbreviates: Table 1, concentration for half maximal competition.
The mark [8] stands for this setting: Table 1, class by IC50 cut-off values.

Like-named read-outs stand apart in the source and are kept apart here. Ends that are not written are not given here.

On to RMATPLLMQA, for which the IC50 amounted to 2.45 µM in experiment [1], 7.75 µM in experiment [2] (Table 2), 8.08 µM in experiment [3] (Table 2) and 2.05 µM in experiment [4].

Turning to LPMGALPQGPM [Peptide 4], the IC50 in experiment [2] (Table 1) was 0.41 µM; in experiment [3] (setting [7]), over 100 µM.

For SPSVDKARAEL, the 50% inhibitory concentration (IC50) in experiment [5] is 0.7 µM.

RMATPLLMQALPM [Peptide 3]: the half-maximal inhibitory concentration (IC50) in experiment [1] amounted to 3.35 µM; in experiment [2] (Table 1), 0.36 µM; in experiment [3] (setting [7]) it was 13.7 µM; in experiment [4], 3.43 µM.

RMATPLLMQAL [RMATPLLMQAL]: the IC50 in experiment [1] is 4.28 µM; in experiment [2] (Table 2), 1.85 µM; in experiment [3] (Table 2) it was 4.49 µM; in experiment [4] it was 0.48 µM.

In the case of GEFGGFGSV, the IC50 in experiment [6] is 0.2 µM.

Regarding KMRMATPLL, the concentration for half-maximal inhibition (IC50) in experiment [1] came out at 6.43 µM; in experiment [2] (Table 2), 0.47 µM; in experiment [3] (Table 2), 10.9 µM; in experiment [4], 0.44 µM.

Take SRGALYTGFSIL [Peptide 1]: the figures for the IC50 in experiment [2] (Table 1) and in experiment [3] (setting [7]) were 1.39 µM and 10.9 µM, respectively.

Consider ETIDWKVFESW [Peptide 5], for which the “HLA-B0702 Affinity” value in experiment [2] (setting [8]) was “– (no binding, >100 µM)”. The IC50 in experiment [2] (Table 1) and in experiment [3] (setting [7]) was over 100 µM each time. In experiment [3] (setting [8]), the “HLA-A201 Affinity” value is recorded as “– (no binding, >100 µM)”.

For LLAGQATT [Peptide 2], the IC50 is 40.9 µM in experiment [2] (Table 1) and over 100 µM in experiment [3] (setting [7]).

As usually defined, the IC50 is the concentration that inhibits the measured activity by half.

These data come from paper PMC3338516 (PLoS ONE, 2012).
